Peptide text beside a SMILES is read from it. * marks the point of attachment. MeOSuc = COC(=O)CCC(=O)*; Cbz = O=C(OCc1ccccc1)*; Boc = CC(C)(C)OC(=O)*; Bz = O=C(c1ccccc1)*
What was measured:
[1] = system: fetal rat forearm bones (radius and ulna), bone resorption; test: Bone resorption suppressing action (^45 Ca release from cultured fetal rat forearm bones, method of Raisz); type: cell-based, Sprague-Dawley rat; conditions: 48 h, cultured two days, control = no test compound, mean of five bone fragments, read-out: Bone Resorption Inhibitory Activity [^45 Ca Release Rate (Percent to Control)]; for activity at 10 µM: Concentration of Compound 10 μM; for activity at 10 µg/mL: Concentration of Compound 10 μg/ml
Description: Specifically, one Sprague-Dawley rat, at 18 days of gestation, was given 50 μCi of ^45 Ca (calcium isotope, in CaCl2 solution) by subcutaneous injection. On the following day, the animal was laparotomized and fetal rats aseptically removed. Both forearm bones (radius and ulna) were cut out from the body of each fetus under an anatomical microscope, and connective tissue and cartilages were removed to the maximum possible extent, to prepare bone culture samples. Each bone fragment was pre-cultured at 37° C. for 24 hours in 0.6 ml of BGJb medium (Fitton-Jackson modification, GIBCO Laboratories, United States) prepared by adding bovine serum albumin (final concentration 2 mg/ml), after which it was transferred to the same medium as above but containing each compound (final concentration 10 μg/ml or 10 μM) and cultured for two more days. ^45 Ca radioactivity in the medium and ^45 Ca radioactivity in the bone were then measured, and the percent ratio of ^45 Ca released from the bone to the medium was calculated using the following equation: [formula]
For control, bone fractions from fetuses of the same litter were cultured for two days in the absence of the test compound. The mean q standard deviation for the values from five bone fragments in each group were calculated, and their percent ratios to the control were calculated.

human cathepsin L = target: T1, human cathepsin L (Homo sapiens, UniProt P07711); test: Determination of human cathepsin L inhibitory activity (recombinant enzyme, Z-Phe-Arg-NMec substrate); type: biochemical; conditions: pH 5.5, 30° C., 10 minutes
T1 construct: made in house; host or cells: mouse myeloma Sp2/0 cells stably transformed with pTBN-HCLneo (Sp-HCL26); purified from serum-free culture supernatant on CM-Sephadex C-50 and Mono S
T1 sequence (P07711 114-333): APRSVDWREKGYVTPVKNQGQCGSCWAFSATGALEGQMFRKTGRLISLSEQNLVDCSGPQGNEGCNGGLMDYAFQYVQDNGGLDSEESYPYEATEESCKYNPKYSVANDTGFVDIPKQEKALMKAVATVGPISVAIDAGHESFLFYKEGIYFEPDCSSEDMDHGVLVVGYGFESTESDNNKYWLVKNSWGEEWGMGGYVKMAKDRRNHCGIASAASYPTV
Description: This fraction was applied to a Mono S column (HR5/5) of an FPLC system (produced by Pharmacia), followed by column washing and human cathepsin L elution in the same manner as above.
Experimental Example 8: Determination of human cathepsin L inhibitory activity
The recombinant human cathepsin L purified in Experimental Example 7 was diluted with a diluent [0.1% Brij 35 (produced by Sigma Chemical Company)] to a concentration of 1 μg/ml. To 1 μl of this enzyme dilution, 46 μl of the diluent, 2 μl of 0.1M DTT and 25 μl of an activator/buffer (340 mM sodium acetate, 60 mM acetic acid, 4 mM disodium EDTA, pH 5.5) were added. To this mixture were added a 1 μl sample, diluted to 10^-2 M with dimethyl sulfoxide (DMSO), and 25 μl of 20 μM Z-Phe-Arg-NMec (enzyme substrate solution), followed by incubation at 30° C. for 10 minutes, after which 100 μl of a reaction stopper (100 mM sodium monochloroacetate, 30 mM sodium acetate, 70 mM acetic acid, pH 4.3) was added. This reaction was carried out on a 96-well fluoroplate (produced by Labo Systems).
After the reaction was stopped, the fluorescence intensity of free aminomethylcoumarin was determined at a wavelength of 450 nm (excitation wavelength=365 nm), using a fluorometer FCA (produced by Baxter). For a control, 1 μl of sample-free DMSO was added instead; the fluorometric value obtained from this control reaction was taken as 100% activity.

SMILES | IC50 (human cathepsin L) [nM] | activity at 10 µM [1] [%] | activity at 10 µg/mL [1] [%]
CC[C@@H](C=O)NC(=O)C(Cc1ccccc1)Cc1ccccc1 [Example 167] | 43 | – | –
O=C[C@H](Cc1c[nH]c2ccccc12)NC(=O)C(c1ccccc1)c1ccccc1 [Example 192] | 4.2 | – | –
CC[C@H](C)[C@H](NS(=O)(=O)c1cccc2ccccc12)C(=O)N[C@H](C=O)Cc1c[nH]c2ccccc12 [Example 103, N-(1-naphthylsulfonyl)-(L)-isoleucyl-(L)-tryptophanal] | – | – | 49
Cc1ccc(CC(Cc2ccccc2)C(=O)N[C@H](CO)Cc2c[nH]c3ccccc23)cc1 (stereo partly shown) [Example 84] | – | 74 | –
C[C@H](NS(=O)(=O)c1cccc2ccccc12)C(=O)N[C@H](C=O)Cc1c[nH]c2ccccc12 [Example 124] | – | 79 | –
O=C[C@H](Cc1c[nH]c2ccccc12)NC(=O)C(Cc1ccccc1)C(=O)NCc1ccccc1 (stereo partly shown) [Example 191] | 4.7 | – | –
CC(C)C[C@H](NS(=O)(=O)c1cccc2ccccc12)C(=O)N[C@@H](Cc1c[nH]c2ccccc12)C(=O)NCC=O [Example 175] | 19 | – | –
O=C[C@H](Cc1c[nH]c2ccccc12)NC(=O)C(Cc1ccccc1)Cc1ccccc1 [Example 122, N-dibenzylacetyl-(L)-tryptophanal] | 32 | 73 | –
CC[C@H](C)[C@H](NC(=O)OCc1ccccc1)C(=O)N[C@H](CO)Cc1cn(C(C)(C)C)c2ccccc12 [Example 59] | – | 67 | –
CC[C@H](C)[C@H](NC(=O)OCc1ccccc1)C(=O)N[C@H](C=O)Cc1ccc(OC(C)C)cc1 [Example 157] | – | 72 | –
CC[C@H](C)[C@H](NS(=O)(=O)c1cccc2ccccc12)C(=O)N[C@H](C=O)Cc1ccccc1 [Example 154, N-(1-naphthylsulfonyl)-(L)-isoleucyl-(L)-phenylalaninal] | 0.95 | – | –
O=C[C@H](Cc1c[nH]c2ccccc12)NC(=O)[C@H](Cc1ccccc1)NC(=O)c1ccccc1 [Example 128] (Bz-Phe-Trp-aldehyde) | 19 | 73 | –
CC[C@H](C)[C@H](NS(=O)(=O)c1cccc2ccccc12)C(=O)N[C@H](C=O)Cc1ccc(O)cc1 [Example 158] | – | 65 | –
CCOP(=O)(Cc1ccc(NC(=O)C(Cc2ccccc2)C(=O)N[C@H](C=O)Cc2c[nH]c3ccccc23)cc1)OCC (stereo partly shown) [Example 188] | 37 | – | –
CC(C)[C@H](NC(=O)c1ccccc1)C(=O)N[C@H](C=O)Cc1c[nH]c2ccccc12 [Example 134] (Bz-Val-Trp-aldehyde) | – | 66 | –
CC[C@H](C)[C@H](NS(=O)(=O)c1cccc2ccccc12)C(=O)N[C@H](CO)Cc1c[nH]c2ccccc12 [Example 3, N-(1-naphthylsulfonyl)-(L)-isoleucyl-(L)-tryptophanol] | – | – | 49
CC(C)[C@H](NC(=O)c1ccccc1)C(=O)N[C@H](CO)Cc1c[nH]c2ccccc12 [Example 38] | – | 76 | –
O=C[C@H](Cc1c[nH]c2ccccc12)NC(=O)C(Cc1ccccc1)C(=O)N(Cc1ccccc1)Cc1ccccc1 (stereo partly shown) [Example 190] | 55 | – | –
O=C(N[C@H](CO)Cc1c[nH]c2ccccc12)C(Cc1ccccc1)Cc1ccccc1 [Example 26, N-dibenzylacetyl-(L)-tryptophanol] | – | 79 | –
CC(C)[C@@H](C=O)NC(=O)C(Cc1ccccc1)Cc1ccccc1 [Example 168] | 26 | – | –
CC[C@H](C)[C@H](NS(=O)(=O)c1cccc2ccccc12)C(=O)N[C@@H](C)C=O [Example 153, N-(1-naphthylsulfonyl)-(L)-isoleucylalanal] | – | 74 | –
CC[C@H](C)[C@H](NC(=O)[C@@H](NS(=O)(=O)c1cccc2ccccc12)[C@@H](C)CC)C(=O)NC(C=O)Cc1cccc2ccccc12 (stereo partly drawn) [Example 118, N-(1naphthylsulfonyl)-(L)-isoleucyl-(L)-isoleucyl-(DL)-(1-naphthyl)alaninal] | 220 | – | –

Continued, in another order:

IC50 (human cathepsin L) [nM] | SMILES | activity at 10 µM [1] [%] | activity at 10 µg/mL [1] [%]
0.99 | CC(C)[C@H](NC(=O)OCc1ccccc1)C(=O)N[C@H](C=O)Cc1c[nH]c2ccccc12 [Example 132] (Cbz-Val-Trp-aldehyde) | 74 | –
48 | CC[C@H](C)[C@H](NC(=O)NCCC1CCCCC1)C(=O)N[C@H](C=O)Cc1c[nH]c2ccccc12 [Example 115, N-[(2-cyclohexylethyl)carbamoyl]-(L)-isoleucyl-(L)-tryptophanal] | – | –
1 | CCCC(CCC)C(=O)N[C@H](C(=O)N[C@H](C=O)Cc1c[nH]c2ccccc12)C(C)C [Example 135, N-(2-propylpentanoyl)-(L)-valyl-(L)-tryptophanal] | 45 | –
5.4 | CC[C@H](C)[C@H](NC(=O)OCc1ccccc1)C(=O)N[C@H](C(=O)N[C@H](C=O)Cc1c[nH]c2ccccc12)[C@@H](C)CC [Example 108, N-(benzyloxycarhonyl)-(L)-isoleucyl-(L)-isoleucyl-(L)-tryptophanal] (Cbz-Ile-Ile-Trp-aldehyde) | – | 42
14 | CC[C@H](C)[C@H](NC(=O)CCC(=O)OC)C(=O)N[C@H](C(=O)N[C@H](C=O)Cc1c[nH]c2ccccc12)[C@@H](C)CC [Example 111] (MeOSuc-Ile-Ile-Trp-aldehyde) | – | 32
16 | CC[C@H](C)[C@H](NC(=O)[C@@H](NS(=O)(=O)c1cccc2ccccc12)[C@@H](C)CC)C(=O)N[C@H](C=O)Cc1c[nH]c2ccccc12 [Example 110, N-(1-naphthylsulfonyl)-(L)-isoleucyl-(L)-isoleucyl-(L)-tryptophanal] | – | 46
1.7 | CC(C)C[C@H](NC(=O)c1ccccc1)C(=O)N[C@H](C=O)Cc1c[nH]c2ccccc12 [Example 143] | – | –
3.9 | CC[C@H](C)[C@H](NC(=O)c1cc(=O)c2ccccc2o1)C(=O)N[C@H](C=O)Cc1c[nH]c2ccccc12 [Example 193] | – | –
10 | CC[C@H](C)[C@H](NC(=O)OC(C)(C)C)C(=O)N[C@H](C(=O)N[C@H](C=O)Cc1c[nH]c2ccccc12)[C@@H](C)CC [Example 109] (Boc-Ile-Ile-Trp-aldehyde) | – | 38
11 | CC[C@H](C)[C@H](NC(=O)OCc1ccccc1)C(=O)N[C@H](C=O)Cc1c[nH]c2ccccc12 [Example 107] | – | –
85 | CCCC(Sc1ccccc1)C(=O)N[C@H](C=O)Cc1c[nH]c2ccccc12 (stereo partly shown) [Example 129] | – | –
2.4 | CCCC(CCC)C(=O)N[C@@H](CC(C)C)C(=O)N[C@H](C=O)Cc1c[nH]c2ccccc12 [Example 144] | 60 | –
6.1 | CC[C@H](C)[C@H](NC(=O)OC(C)(C)C)C(=O)N[C@H](C=O)Cc1cn(C)c2ccccc12 [Example 150] | – | –
380 | CC[C@H](C)[C@H](NC(=O)OCCC12CC3CC(CC(C3)C1)C2)C(=O)N[C@H](C(=O)N[C@H](C=O)Cc1c[nH]c2ccccc12)[C@@H](C)CC [Example 112] | – | 43
